Results taken from publication PMC7939386 (The Journal of Biological Chemistry, 2021).

What was measured:
[1] = target: T1, KIF1A-406 (Rattus norvegicus, UniProt F1M4A4); assay: stopped-flow dissociation, ADP-bound motor flushed against […] mADP; assay type: binding; settings: no microtubules; BRB80, pH 6.9, 25 °C; b26 prints the error as ± 0.005
T1 construct: motor head and neck linker, residues 1-368, followed by 61 residues of Drosophila melanogaster KHC neck coil (printed 'residues 445-405', probably 345-405) for dimerization; C-terminal His6; E. coli-type bacterial expression; homodimer
T1 sequence (F1M4A4 1-368): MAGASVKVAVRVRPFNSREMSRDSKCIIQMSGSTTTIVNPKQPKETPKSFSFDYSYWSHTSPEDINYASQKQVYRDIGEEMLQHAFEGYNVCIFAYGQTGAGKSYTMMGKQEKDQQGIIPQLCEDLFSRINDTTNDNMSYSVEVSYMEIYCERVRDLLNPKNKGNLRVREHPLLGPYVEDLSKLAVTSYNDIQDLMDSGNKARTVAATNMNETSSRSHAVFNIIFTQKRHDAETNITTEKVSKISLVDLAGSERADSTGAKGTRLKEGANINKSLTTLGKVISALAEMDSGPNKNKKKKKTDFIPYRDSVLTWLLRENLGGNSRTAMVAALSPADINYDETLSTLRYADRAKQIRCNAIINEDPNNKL

[2] = target: T2, KIF1A-560-GFP (Rattus norvegicus, UniProt F1M4A4); assay: single-molecule TIRF microtubule off-rate versus [ADP], hyperbolic fit; assay type: binding; settings: motor bound to Taxol-stabilized microtubules; BRB80 (80 mM PIPES, pH 6.9), 25 °C; fit ± 95% CI; authors equate K0.5 with KD
T2 construct: motor head and neck linker, residues 1-368, followed by Drosophila melanogaster KHC neck coil and coil-1 (216 residues by b8; b50 says additional 216 residues), C-terminal GFP and His6; bacterial expression; homodimer
T2 sequence (F1M4A4 1-368): T1 sequence (F1M4A4 1-368)

[3] = target: T1, KIF1A-406; assay: stopped-flow nucleotide-triggered half-site release of mADP, Michaelis-Menten fit; assay type: biochemical; settings: one-head-bound complex with 3 μM Taxol-stabilized microtubules, mADP in tethered head; BRB80 (80 mM PIPES, 1 mM MgCl2, pH 6.9), 25 °C; fit ± 95% CI; read-out: Experimental

mADP dissociation rate constant [1]	Kd [2]	Km [3]	Compound
0.26 ± 0.001 s⁻¹	93 ± 204 µM	–	Nc1ncnc2c1ncn2[C@@H]1O[C@H](COP(=O)(O)OP(=O)(O)O)[C@@H](O)[C@H]1O [ADP]
–	–	119 ± 21 µM	Nc1ncnc2c1ncn2[C@@H]1O[C@H](COP(=O)(O)OP(=O)(O)OP(=O)(O)O)[C@@H](O)[C@H]1O [ATP]
